Among the data in ChEMBL document CHEMBL4184196, “Design, synthesis, and evaluation of polyamine-memantine hybrids as NMDA channel blockers” (Bioorg Med Chem, 2018) are IC50 and inhibition values, retold here.

Counter-ions that a name gives are not always drawn. The source made the active and inactive calls. The rule behind the calls is not given here.

Usually IC50 stands for the point on the concentration scale where inhibition reaches its midpoint.

Holding throughout (assay type): cell-based
Test [1] has as its target Glutamate NMDA receptor; Grin1/Grin2a (Rattus norvegicus, UniProt P35439+Q00959). Description: Antagonist activity at rat brain GluN1/GluN2A receptor expressed in Xenopus laevis oocytes assessed as inhibition of glutamate/glycine-induced channel current by two electrode voltage clamp method. A general note: Two-electrode voltage clamp is typically applied to oocytes expressing channels or transporters.

Test [2] addresses Glutamate NMDA receptor; Grin1/Grin2b (Rattus norvegicus, UniProt P35439+Q00960). Description: Antagonist activity at rat brain GluN1/GluN2B receptor expressed in Xenopus laevis oocytes assessed as inhibition of glutamate/glycine-induced channel current by two electrode voltage clamp method.
The target in test [3] is Glutamate NMDA receptor; Grin1/Grin2a (Rattus norvegicus) (UniProt P35439+Q00959). Description: Antagonist activity at rat brain GluN1/GluN2A receptor expressed in Xenopus laevis oocytes assessed as inhibition of glutamate/glycine-induced channel current at 1 uM by two electrode voltage clamp method.
The target in test [4] is Glutamate NMDA receptor; Grin1/Grin2b (Rattus norvegicus) (UniProt P35439+Q00960). Description: Antagonist activity at rat brain GluN1/GluN2B receptor expressed in Xenopus laevis oocytes assessed as inhibition of glutamate/glycine-induced channel current at 1 uM by two electrode voltage clamp method.

Regarding `CC12CC3CC(C)(C1)CC(N)(C3)C2` [MEMANTINE HYDROCHLORIDE], in test [1], the concentration for half-maximal inhibition (IC50) came to 1.38 µM.

In the case of `CC12CC3CC(C)(C1)CC(NCCCCNCCCCN)(C3)C2`, the IC50 was found to be 0.656 µM in test [1] and 0.587 µM in test [2].

As to `CC12CC3CC(C)(C1)CC(NCCCCN=C(N)N)(C3)C2`, the inhibition entry in test [3] and in test [4] was “Active” each time.

For `CC12CC3CC(C)(C1)CC(NCCCCNCCCCNC(=N)N)(C3)C2`, the IC50 in test [1] was found to be 0.379 µM; in test [2] it was 0.433 µM.

As to `CC12CC3CC(C)(C1)CC(NCCCCNCc1ccccc1)(C3)C2`, the inhibition result in test [3] and in test [4] was “Active” each time.

Turning to `CC12CC3CC(C)(C1)CC(NCCCCCCCCCN)(C3)C2`, the inhibition result in test [3] and in test [4] was “Active” in each case.

Regarding `CC12CC3CC(C)(C1)CC(NCCCCN)(C3)C2`, the inhibition result in test [3] and in test [4] was “Active” throughout.
